# Measured values published in paper PMC12059162 (Scientific Reports, 2025).
# Legend:
# PANC-1 cells = experiment: CyQUANT LDH direct cytotoxicity assay; type: cell-based, human; details: PANC-1, 25 µM, 72 h
# Method: To assess the direct cytotoxicity, the CyQUANT™ LDH Cytotoxicity Assay (Invitrogen Corporation, New York, NY, USA) was used, which is a colourimetric assay. It is based on the detection of lactate dehydrogenase (LDH) activity. When there is damage to the plasma membrane, LDH is released into the cell culture medium, where it can be detected. First, 5 × 10^3 cells/well/100 µL concentration of cells were seeded in a 96-well plate, and after 24 h of incubation, the cells were treated with the molecules at concentrations of 0.5, 10 and 25 µM. After 72 h of treatment, 50 µl of the media from each sample was pipetted to a new 96-well plate. Then, the necessary steps were carried out according to the manufacturer’s instructions. Absorbance was measured for each well using a plate reader (Multiskan MS, Labsystems, Helsinki, Finland) at 492 and 680 nm. The % cytotoxicity was then calculated according to the manufacturer’s instructions. Three parallel samples were analysed in each treatment group.
# FADD = experiment: Human Apoptosis Array in PANC-1 cells; details: PANC-1, 0.5 µM, 72 h
# phospho-p53 (S392) = experiment: Human Apoptosis Array in PANC-1 cells; details: PANC-1, 0.5 µM, 72 h
# XIAP = experiment: Human Apoptosis Array in PANC-1 cells; details: PANC-1, 0.5 µM, 72 h
# DR4 = experiment: qPCR apoptotic gene expression in PANC-1 cells; details: PANC-1, 25 µM
# cleaved caspase-3 = experiment: Human Apoptosis Array in PANC-1 cells; details: PANC-1, 0.5 µM, 72 h
# SMAC = experiment: Human Apoptosis Array in PANC-1 cells; details: PANC-1, 0.5 µM, 72 h
# survivin = experiment: Human Apoptosis Array in PANC-1 cells; details: PANC-1, 0.5 µM, 72 h
# caspase-3/7 = experiment: CellEvent Caspase-3/7 activity imaging in PANC-1 cells; details: PANC-1, 0.5 µM, 72 h, normalised to DMSO control (n = 1)
smiles,measurement,setting,value
O=C1C2=C(CCN(Cc3ccccc3)C2)N2CCN=C2N1Cc1ccc(F)cc1 [TBP-134],cytotoxicity at 25 µM,"PANC-1 cells; Homo sapiens, DMSO control 5.3%",6.9%
same,"Direct cytotoxicity, fold compared to the DMSO control",PANC-1 cells,1.3 fold
same,FADD protein level,FADD,decrease
same,phospho-p53 (S392) protein level,phospho-p53 (S392),decrease
same,XIAP protein level,XIAP,decrease
O=C1C2=C(CCN(Cc3ccccc3)C2)N2CCN=C2N1Cc1cccc(F)c1 [TBP-135],DR4 mRNA expression,DR4; 3 h,significantly upregulated
same,DR4 mRNA expression,"DR4; 24 h, normalised to DMSO control",3.7 fold
same,cleaved caspase-3 protein level,cleaved caspase-3,significantly increased
same,SMAC protein level,SMAC,significantly increased
same,survivin protein level,survivin,did not exert detectable change
same,"Number of caspase-3/7 active cells, increase",caspase-3/7,7.8 fold
